# Source: ChEMBL document CHEMBL1275577, “Study of the in vitro activities of rifaximin and comparator agents against 536 anaerobic intestinal bacteria from the perspective of potential utility in pathology involving bowel flora” (Antimicrob Agents Chemother, 2009)
# Experiments:
# Eubacterium biforme = experiment: Antimicrobial activity against Eubacterium biforme by Wadsworth agar dilution method; type: functional; settings: Holdemanella biformis
# Desulfovibrio vulgaris = experiment: Antimicrobial activity against Desulfovibrio vulgaris by Wadsworth agar dilution method; type: functional; settings: Nitratidesulfovibrio vulgaris
# [1] = system: Clostridium aminobutyricum; experiment: Antimicrobial activity against Clostridium aminobutyricum by Wadsworth agar dilution method; type: functional
# [2] = system: Coprobacillus cateniformis; experiment: Antimicrobial activity against Coprobacillus cateniformis by Wadsworth agar dilution method; type: functional
# Anaerococcus prevotii = experiment: Antimicrobial activity against Anaerococcus prevotii by Wadsworth agar dilution method; type: functional
# Holdemania filiformis = experiment: Antimicrobial activity against Holdemania filiformis by Wadsworth agar dilution method; type: functional
# [3] = system: Peptoniphilus asaccharolyticus; experiment: Antimicrobial activity against Peptoniphilus asaccharolyticus by Wadsworth agar dilution method; type: functional
# [4] = system: Paraclostridium bifermentans; experiment: Antimicrobial activity against Clostridium bifermentans by Wadsworth agar dilution method; type: functional
# Clostridium butyricum = experiment: Antimicrobial activity against Clostridium butyricum by Wadsworth agar dilution method; type: functional
# [5] = system: Bifidobacterium adolescentis; experiment: Antimicrobial activity against Bifidobacterium adolescentis by Wadsworth agar dilution method; type: functional
# Clostridium hathewayi = experiment: Antimicrobial activity against Clostridium hathewayi by Wadsworth agar dilution method; type: functional; settings: Hungatella hathewayi
# Eubacterium saburreum = experiment: Antimicrobial activity against Eubacterium saburreum by Wadsworth agar dilution method; type: functional; settings: Lachnoanaerobaculum saburreum
# Clostridium septicum = experiment: Antimicrobial activity against Clostridium septicum by Wadsworth agar dilution method; type: functional
# [6] = system: Catenibacterium mitsuokai; experiment: Antimicrobial activity against Catenibacterium mitsuokai by Wadsworth agar dilution method; type: functional
# Tissierella praeacuta = experiment: Antimicrobial activity against Clostridium hastiforme by Wadsworth agar dilution method; type: functional
# Porphyromonas = experiment: Antimicrobial activity against Porphyromonas sp. by Wadsworth agar dilution method; type: functional
# Fusobacterium mortiferum = experiment: Antimicrobial activity against Fusobacterium mortiferum by Wadsworth agar dilution method in presence of beta-lactamase inhibitor Sulbactam; type: functional
# Bacteroides caccae = experiment: Antimicrobial activity against Bacteroides caccae by Wadsworth agar dilution method; type: functional
# [7] = system: Desulfovibrio fairfieldensis; experiment: Antimicrobial activity against Desulfovibrio fairfieldensis by Wadsworth agar dilution method; type: functional
# Prevotella intermedia = experiment: Antimicrobial activity against Prevotella intermedia by Wadsworth agar dilution method; type: functional
# [8] = system: Clostridium lactatifermentans; experiment: Antimicrobial activity against Clostridium lactatifermentans by Wadsworth agar dilution method; type: functional; settings: Anaerotignum lactatifermentans
# Anaerococcus tetradius = experiment: Antimicrobial activity against Anaerococcus tetradius by Wadsworth agar dilution method; type: functional
# Clostridium spiroforme = experiment: Antimicrobial activity against Clostridium spiroforme by Wadsworth agar dilution method; type: functional; settings: Thomasclavelia spiroformis
# Lactobacillus sp. = experiment: Antimicrobial activity against Lactobacillus sp. by Wadsworth agar dilution method; type: functional
# Bacteroides nordii = experiment: Antimicrobial activity against Bacteroides nordii by Wadsworth agar dilution method; type: functional
# Prevotella disiens = experiment: Antimicrobial activity against Prevotella disiens by Wadsworth agar dilution method; type: functional
# Desulfovibrio sp. = experiment: Antimicrobial activity against Desulfovibrio sp. by Wadsworth agar dilution method; type: functional
# [9] = system: Paeniclostridium sordellii; experiment: Antimicrobial activity against Clostridium sordellii by Wadsworth agar dilution method; type: functional; settings: Paraclostridium sordellii
# Finegoldia magna = experiment: Antimicrobial activity against Finegoldia magna by Wadsworth agar dilution method; type: functional
# Clostridioides difficile = experiment: Antimicrobial activity against Clostridium difficile by Wadsworth agar dilution method; type: functional
# [10] = Antimicrobial activity against Bifidobacterium infantis by Wadsworth agar dilution method; type: functional, Bifidobacterium longum subsp. infantis; settings: Bifidobacterium longum
# Eggerthella lenta = experiment: Antimicrobial activity against Eggerthella lenta by Wadsworth agar dilution method; type: functional
# Ruminococcus torques = experiment: Antimicrobial activity against Ruminococcus torques by Wadsworth agar dilution method; type: functional; settings: Mediterraneibacter torques
# [11] = system: Lactobacillus acidophilus; experiment: Antimicrobial activity against Lactobacillus acidophilus by Wadsworth agar dilution method; type: functional
# [12] = system: Clostridium acetobutylicum; experiment: Antimicrobial activity against Clostridium acetobutylicum by Wadsworth agar dilution method; type: functional
# Bifidobacterium breve = experiment: Antimicrobial activity against Bifidobacterium breve by Wadsworth agar dilution method; type: functional
# Desulfovibrio piger = experiment: Antimicrobial activity against Desulfovibrio piger by Wadsworth agar dilution method; type: functional
# Cutibacterium acnes = experiment: Antimicrobial activity against Propionibacterium acnes by Wadsworth agar dilution method; type: functional
# Eubacterium callanderi = experiment: Antimicrobial activity against Eubacterium callanderi by Wadsworth agar dilution method; type: functional
# Porphyromonas somerae = experiment: Antimicrobial activity against Porphyromonas somerae by Wadsworth agar dilution method; type: functional
# [13] = system: Parabacteroides distasonis; experiment: Antimicrobial activity against Parabacteroides distasonis by Wadsworth agar dilution method; type: functional
# [14] = system: Bifidobacterium pseudolongum; experiment: Antimicrobial activity against Bifidobacterium pseudolongum by Wadsworth agar dilution method; type: functional
# Porphyromonas uenonis = experiment: Antimicrobial activity against Porphyromonas uenonis by Wadsworth agar dilution method; type: functional
# Clostridium cocleatum = experiment: Antimicrobial activity against Clostridium cocleatum by Wadsworth agar dilution method; type: functional; settings: Thomasclavelia cocleata
# Clostridium tertium = experiment: Antimicrobial activity against Clostridium tertium by Wadsworth agar dilution method; type: functional
# Clostridium glycolicum = experiment: Antimicrobial activity against Clostridium glycolicum by Wadsworth agar dilution method; type: functional; settings: Terrisporobacter glycolicus
# [15] = system: Bacteroides thetaiotaomicron; experiment: Antimicrobial activity against Bacteroides thetaiotaomicron by Wadsworth agar dilution method; type: functional
structure (smiles),measurement,setting,value
CN[C@H](CC(C)C)C(=O)N[C@H]1C(=O)N[C@@H](CC(N)=O)C(=O)N[C@H]2C(=O)N[C@H]3C(=O)N[C@H](C(=O)N[C@H](C(=O)O)c4cc(O)cc(O)c4-c4cc3ccc4O)[C@H](O)c3ccc(c(Cl)c3)Oc3cc2cc(c3O[C@@H]2O[C@H](CO)[C@@H](O)[C@H](O)[C@H]2O[C@H]2C[C@](C)(N)[C@H](O)[C@H](C)O2)Oc2ccc(cc2Cl)[C@H]1O [VANCOMYCIN],MIC50,Eubacterium biforme,1 µg/mL
same,MIC90,Eubacterium biforme,64 µg/mL
same,MIC50,Desulfovibrio vulgaris,> 1020 µg/mL
same,MIC90,Desulfovibrio vulgaris,> 1020 µg/mL
same,MIC50,[1],1 µg/mL
same,MIC90,[1],4 µg/mL
same,MIC50,[2],1 µg/mL
same,MIC90,[2],64 µg/mL
same,MIC50,Anaerococcus prevotii,0.5 µg/mL
same,MIC90,Anaerococcus prevotii,1 µg/mL
same,MIC50,Holdemania filiformis,1 µg/mL
same,MIC90,Holdemania filiformis,64 µg/mL
same,MIC50,[3],0.5 µg/mL
same,MIC90,[3],1 µg/mL
same,MIC50,[4],1 µg/mL
same,MIC90,[4],4 µg/mL
same,MIC50,Clostridium butyricum,1 µg/mL
same,MIC90,Clostridium butyricum,4 µg/mL
same,MIC50,[5],1 µg/mL
same,MIC90,[5],64 µg/mL
same,MIC50,Clostridium hathewayi,1 µg/mL
same,MIC90,Clostridium hathewayi,1 µg/mL
same,MIC50,Eubacterium saburreum,1 µg/mL
same,MIC90,Eubacterium saburreum,64 µg/mL
same,MIC50,Clostridium septicum,1 µg/mL
same,MIC90,Clostridium septicum,4 µg/mL
same,MIC50,[6],1 µg/mL
same,MIC90,[6],64 µg/mL
same,MIC50,Tissierella praeacuta,1 µg/mL
same,MIC90,Tissierella praeacuta,4 µg/mL
same,MIC50,Porphyromonas,4 µg/mL
same,MIC90,Porphyromonas,8 µg/mL
same,MIC50,Fusobacterium mortiferum,256 µg/mL
same,MIC90,Fusobacterium mortiferum,> 1020 µg/mL
same,MIC50,Bacteroides caccae,32 µg/mL
same,MIC90,Bacteroides caccae,64 µg/mL
same,MIC50,[7],> 1020 µg/mL
same,MIC90,[7],> 1020 µg/mL
same,MIC50,Prevotella intermedia,128 µg/mL
same,MIC90,Prevotella intermedia,256 µg/mL
same,MIC50,[8],1 µg/mL
same,MIC90,[8],4 µg/mL
same,MIC50,Anaerococcus tetradius,0.5 µg/mL
same,MIC90,Anaerococcus tetradius,1 µg/mL
same,MIC50,Clostridium spiroforme,1 µg/mL
same,MIC90,Clostridium spiroforme,4 µg/mL
same,MIC50,Lactobacillus sp.,1 µg/mL
same,MIC90,Lactobacillus sp.,64 µg/mL
same,MIC,Bacteroides nordii,64 µg/mL
same,MIC50,Bacteroides nordii,64 µg/mL
same,MIC90,Bacteroides nordii,128 µg/mL
same,MIC50,Prevotella disiens,128 µg/mL
same,MIC90,Prevotella disiens,256 µg/mL
same,MIC50,Desulfovibrio sp.,> 1020 µg/mL
same,MIC90,Desulfovibrio sp.,> 1020 µg/mL
same,MIC50,[9],1 µg/mL
same,MIC90,[9],4 µg/mL
same,MIC50,Finegoldia magna,0.5 µg/mL
same,MIC90,Finegoldia magna,1 µg/mL
same,MIC,Clostridioides difficile,1 µg/mL
same,MIC50,Clostridioides difficile,1 µg/mL
same,MIC90,Clostridioides difficile,2 µg/mL
same,MIC50,[10],1 µg/mL
same,MIC90,[10],64 µg/mL
same,MIC50,Eggerthella lenta,1 µg/mL
same,MIC90,Eggerthella lenta,64 µg/mL
same,MIC50,Ruminococcus torques,0.5 µg/mL
same,MIC90,Ruminococcus torques,1 µg/mL
same,MIC50,[11],1 µg/mL
same,MIC90,[11],64 µg/mL
same,MIC50,[12],1 µg/mL
same,MIC90,[12],4 µg/mL
same,MIC50,Bifidobacterium breve,1 µg/mL
same,MIC90,Bifidobacterium breve,64 µg/mL
same,MIC50,Desulfovibrio piger,> 1020 µg/mL
same,MIC90,Desulfovibrio piger,> 1020 µg/mL
same,MIC50,Cutibacterium acnes,1 µg/mL
same,MIC90,Cutibacterium acnes,64 µg/mL
same,MIC50,Eubacterium callanderi,1 µg/mL
same,MIC90,Eubacterium callanderi,64 µg/mL
same,MIC50,Porphyromonas somerae,4 µg/mL
same,MIC90,Porphyromonas somerae,8 µg/mL
same,MIC50,[13],128 µg/mL
same,MIC90,[13],128 µg/mL
same,MIC50,[14],1 µg/mL
same,MIC90,[14],64 µg/mL
same,MIC50,Porphyromonas uenonis,4 µg/mL
same,MIC90,Porphyromonas uenonis,8 µg/mL
same,MIC50,Clostridium cocleatum,1 µg/mL
same,MIC90,Clostridium cocleatum,4 µg/mL
same,MIC50,Clostridium tertium,1 µg/mL
same,MIC90,Clostridium tertium,4 µg/mL
same,MIC50,Clostridium glycolicum,1 µg/mL
same,MIC90,Clostridium glycolicum,4 µg/mL
same,MIC50,[15],128 µg/mL
same,MIC90,[15],256 µg/mL
